The text below walks through data of patent US11905264B1, “N′-(2-(5-(4-chlorophenyl)-1,3,4-oxadiazol-2-ylthio)acetoxy)-4-nitrobenzimidamide as an antimicrobial compound” (KING FAISAL UNIVERSITY, priority 2023, dated 2024).

The structures appear in SMILES notation.

Type in all cases: cell-based
Test [1] has as its system Chrysosporium keratinophilum. In words: Agar plate disc-diffusion, antifungal inhibition zone. To be noted: Sabouraud's dextrose agar, 72 hours. As to the method:
(§1) The agar plate disc-diffusion method was applied. […] The discs were then placed onto the surface of agar plates (nutrient agar for bacteria and Sabouraud's dextrose agar for fungi) seeded with the test organism. Each plate contained 15 mL of the agar medium, previously seeded with 0.2 mL of the broth culture of each organism pregrown for 18 hours. The plates were incubated at 37° C. for 48 hours and 72 hours for fungi. The inhibition zones were measured in mm. Discs impregnated with DMSO were used as a control, and their inhibition zone was subtracted from the tested compound's actual inhibition zone.

Another test relates to Aspergillus flavus. Described as above. As to conditions: Sabouraud's dextrose agar, 72 hours. On the procedure:
as §1

The next test has as its system Escherichia coli. In words: Agar plate disc-diffusion, antibacterial inhibition zone. As to conditions: Gram negative, nutrient agar, 37° C. As to the method: as §1
(In general: A growth-free zone around the sample is the usual read-out of agar diffusion tests.)

A further test concerns Staphylococcus aureus. The test is described as above. To be noted: Gram positive, nutrient agar, 37° C. On the procedure:
as §1

For a further test, the system named is Pseudomonas aeruginosa. The test is described as above. As to conditions: Gram negative, nutrient agar, 37° C. As to the method:
as §1

The subject of the next test is Bacillus cereus. The description is as above. As to conditions: Gram positive, nutrient agar, 37° C. On the procedure: as §1
[2] abbreviates: B = concentration of comp. = 30,000 μL.
Where [3] appears, read: C = concentration of comp. = 50,000 μL.
Where [4] appears, read: A = concentration of comp. = 10,000 μL.

Turning to `N/C(=N\OC(=O)CSc1nnc(-c2ccc(Cl)cc2)o1)c1ccc([N+](=O)[O-])cc1` [Compound 3, N′-(2-(5-(4-chlorophenyl)-1,3,4-oxadiazol-2-ylthio)acetoxy)-4-nitrobenzimidamide], in test [1] (A =), the “inhibition zone, Chrysosporium keratinophilum, A” value was 26 mm. For the same compound, the “inhibition zone, Chrysosporium keratinophilum, B” value in test [1] (setting [2]) is listed as 28 mm. Moreover, the “inhibition zone, Chrysosporium keratinophilum, C” value in test [1] (setting [3]) was 41 mm. In addition, the “inhibition zone, Aspergillus flavus, A” value with Aspergillus flavus (setting [4]) was found to be 23 mm. The “inhibition zone, Aspergillus flavus, B” value in the test on Aspergillus flavus (setting [2]) was 27 mm. Besides, the “inhibition zone, Aspergillus flavus, C” value in the test with Aspergillus flavus (setting [3]) amounted to 39 mm. For the same compound, the “inhibition zone, Escherichia coli, A” value in the test on Escherichia coli (setting [4]) was 27 mm. Moreover, the “inhibition zone, Escherichia coli, B” value with Escherichia coli (setting [2]) is on record as 31 mm. Further, the “inhibition zone, Escherichia coli, C” value in the test with Escherichia coli (setting [3]) is 50 mm. Also, in the test on Staphylococcus aureus (setting [4]), the “inhibition zone, Staphylococcus aureus, A” value is listed as 17 mm. Besides, the “inhibition zone, Staphylococcus aureus, B” value in the test with Staphylococcus aureus (setting [2]) is listed as 20 mm. Further, the “inhibition zone, Staphylococcus aureus, C” value with Staphylococcus aureus (setting [3]) was 37 mm. For the same compound, the “inhibition zone, Pseudomonas aeruginosa, A” value in the test with Pseudomonas aeruginosa (setting [4]) was 22 mm. In addition, in the test on Pseudomonas aeruginosa (setting [2]), the “inhibition zone, Pseudomonas aeruginosa, B” value was found to be 26 mm. The “inhibition zone, Pseudomonas aeruginosa, C” value with Pseudomonas aeruginosa (setting [3]) turned out to be 40 mm. Also, in the test on Bacillus cereus (setting [4]), the “inhibition zone, Bacillus Cereus, A” value was found to be 27 mm. In the test with Bacillus cereus (setting [2]), the “inhibition zone, Bacillus Cereus, B” value is listed as 29 mm. The “inhibition zone, Bacillus Cereus, C” value in the test on Bacillus cereus (setting [3]) was found to be 40 mm.
